This is an account of results in US10351915B2 (Berg LLC, priority 2009, dated 2019).

Molecules are shown by their SMILES.

In one series the test system is SKBr3. Nature of the series: Nexin assay for apoptosis (flow cytometry). The class given is cell-based, human. The following applies: 50 μM or 100 μM Q10, 24 hours. An excerpt: (§1) The 7AAD dye will enter into cells with permeabilized cell membranes; primarily those cells that are in late apoptosis. Annexin-V-PE is a dye that binds to Phosphotidyl serine, which is exposed on the outer surface of the plasma membrane in early apoptotic cells. The Nexin reagent thus can be used to differentiate between different populations of apoptotic cells in a flow cytometer.
(In flow cytometry, cells or beads pass a laser one at a time.)

The next series concerns SCC cells. Nature of the series: Real-time PCR Apoptosis Array. The class given is cell-based. The source says: The control cells were untreated cells.
RNA was quantified by measuring Optical Density at 260 nm.
On the technique in general: In qPCR the cycle at which signal appears reflects the starting amount.

A further series deals with SDH Subunit B. Nature of the series: Western blot, Succinate Dehydrogenase B in mitochondrial preparations. The class given is cell-based. The conditions noted are these: mitochondrial preparations of cancer cells. Here is the method:
The above blots were stripped by incubating for 30 minutes with methanol, followed by two 10 minute washes with TBS-T, then 30 minutes of incubation with Stripping buffer at 50 deg C., and followed by two washes with 100 ml or more of TBS-T for 30′ each. The blots were scanned in laser scanner to check for complete stripping. The blots were activated with methanol for 5 seconds, washed with water for 5 minutes, and TBST for 15 minutes. The blots were blocked for 1 hour with 5% blocking reagent in TBS-T at room temperature and then washed 3 times with TBS-T (1×-15′; 2×5′ each) and probed with the primary antibody for PKM2, SDHB or SDHC in 5% BSA in TBS-T by incubation overnight at 4 deg C. with gentle shaking. The primary antibody for SDHC (ABNOVA H00006391-M02; antimouse) was at 1:500 dilution. The primary antibody for SDHB was from Abcam ab4714-200; antimouse; at 1:1000 dilution. The primary antibody for Pyruvate Kinase M2 (PKM2) was from Novus Biologicals H00005315-D0IP; antirabbit; at 1:500 dilution. After incubation with primary antibodies, the membranes were washed 3 times with TBS-T (1×-15′; 2×5′ each) and probed with the secondary antibody (SDHB & C antimouse; and PKM2 antirabbit; 1:10,000 dilution) for 1 h on the orbital tilting shaker at room temperature. […]
Background: A western blot detects proteins with antibodies after separation by electrophoresis.

Another series deals with HASMC cells. Nature of the series: Extracellular acidification rate (ECAR), SeaHorse XF analyzer. It counts as cell-based, human. The following applies: hyperglycemic, hypoxic conditions. The source says: (SeaHorse Biosciences Inc, North Billerica, Mass.).
In this experiment, the OCR and extracellular acidification rate (ECAR) in normal cells lines were obtained in the presence and absence of CoQ10 to determine baseline values. It was observed that in its native nutrient environment, the basal OCR rates in normal cells lines are different, and are usually a function of the physiological roles of the cells in the body.
In Table 128 the measured baseline ECAR values (mpH/min) in HASMC were higher compared to that of HDFa. Induction of hypoxic conditions caused an increase in ECAR most likely associated with intracellular hypoxia induced acidosis secondary to increased glycolysis.

The next series has as its system SKMEL-28 cells. Nature of the series: 2-D gel electrophoresis proteomic analysis. It counts as cell-based. The procedure:
For isolation of proteins, cells were washed three times with 5 mL of ice cold PBS at a pH of 7.4. The cells were then scraped in 3 mL of PBS, pelleted by centrifuge, and re-suspended in a lysis buffer at pH 7.4 (80 mM TRIS-HCl, 1% SDS, with protease and phosphotase inhibitors). Protein concentrations were quantified using the BCA method.
The gels were run in duplicate.
The first experimental set processed and evaluated by Western blot and 2-D gel electrophoresis was the skin cancer cell line SKMEL-28.
A comparative analysis of 943 spots across all twenty-four gels was performed, comparing the control sample against all of the treated samples. The analysis included the identification of spot changes over the time course due to increase, decrease, or post-translational modification.
The analysis found thirty-two statistically significant differential spot changes. […] The characterized peptides were searched against protein databases with Mascot and MSRAT software analysis to identify the protein (Table 2).

Series [1] can be described thus: LC-MS/MS quantification of Q10, Q10H2 and Q9 in mitochondrial enriched samples. The class given is cell-based. Here is the method: Ten μl of each sample was injected.
In the next series the test system is skin cancer cells. The conditions noted are these: skin cancer cells vs normal cells; cited from earlier work.
The next series has as its system MCF-7. Nature of the series: Nexin assay for apoptosis (flow cytometry). The class given is cell-based. The following applies: 50 μM and 100 μM Q10, 24 hours.
From the text: as §1

The test system of the next series is SK-MEL28. Nature of the series: Nexin assay for apoptosis (flow cytometry). The conditions noted are these: 50 μM and 100 μM Q10, 24 hours. The class given is cell-based.
From the text: as §1

A further series relates to PC-3. Nature of the series: Nexin assay for apoptosis (flow cytometry). The conditions noted are these: 50 μM and 100 μM Q10, 24 hours. It counts as cell-based.
From the text: as §1

The next series relates to PaCa2. Nature of the series: Nexin assay for apoptosis (flow cytometry). The class given is cell-based. The conditions noted are these: 50 μM and 100 μM Q10, 24 hours.
From the text: as §1

Take `COC1=C(OC)C(=O)C(C/C=C(\C)CC/C=C(\C)CC/C=C(\C)CC/C=C(\C)CC/C=C(\C)CC/C=C(\C)CC/C=C(\C)CC/C=C(\C)CC/C=C(\C)CCC=C(C)C)=C(C)C1=O` [Q10, Coenzyme Q10]: the “early and late apoptosis” value in the series with SKBr3 is “did not show any significant increases of early and late apoptosis”. Further, the “Regulation (mRNA)” value in the series with SCC cells (100 μM Q10, at 6 hours) is “Down regulated at 6 hours”; in the series with SCC cells (100 μM Q10, at 24 hours, BAX mRNA), “Up regulated at 24 hours”; with SCC cells (100 μM Q10, at 24 hours, BNIP3 mRNA), “Down regulated at 24 hours”. In addition, the SDH protein levels result in the series with SDH Subunit B is recorded as “increase SDH protein levels”. Moreover, the ECAR rates entry with HASMC cells was “downward trend of ECAR rates”. For the same molecule, the “Expression (2D spot)” value in the series with SKMEL-28 cells (3 hr, 50 uM Q10) was “down”; in the series on SKMEL-28 cells (3 hr, 100 uM Q10) it was “down”; in the series with SKMEL-28 cells (6 hr, 50 uM Q10, protein EIF6), “up”; with SKMEL-28 cells (6 hr, 50 uM Q10, protein LMNB1), “down”; with SKMEL-28 cells (6 hr, 100 uM Q10, protein EIF6), “down”; with SKMEL-28 cells (6 hr, 100 uM Q10, protein VIM), “up”. The “Expression (2D spot)” value in the series with SKMEL-28 cells (12 hr, 50 uM Q10, protein LGALS1) was “down”; with SKMEL-28 cells (12 hr, 50 uM Q10, protein PDCD6IP) it was “up”; in the series with SKMEL-28 cells (12 hr, 100 uM Q10), “up”; in the series on SKMEL-28 cells (24 hr, 50 uM Q10) it was “down”. In addition, the “increase in Q10 levels in mitochondria” value in [1] (100 μM Q10, 19 hours) is given as about 3 fold; in series [1] (100 μM Q10, 48 hour time point), about 6 fold. The “form of Q10 in mitochondria” value in series [1] (exogenous Q10 added to the media) is given as “maintained in the supplied oxidized form”. Besides, the rate of apoptosis result in the series on skin cancer cells was “increase the rate of apoptosis in a culture of skin cancer cells but not normal cells”. For the same molecule, the apoptotic population entry with MCF-7 and with SK-MEL28 was “an increase only in early apoptotic population” each time. For the same molecule, the “early and late apoptotic population” value with PC-3 was “an increase in both early and late apoptotic population”. In addition, in the series with PaCa2, the “increase in both early and late apoptotic cells” value is 5-10 % of gated cells.
